# Laboratory results published in the supplement of paper PMC10307832.
# Key:
# Test in all cases: relative viability (nuclei count vs DMSO), 5 days (fraction); higher = more cells survive
# BEN = test system: BEN
# In short: (§1)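 Relative viability equals treated-well nuclei counts divided by vehicle-well nuclei counts. Counts came from 4× images of lung cancer cell lines grown in 1536-well plates for 5 days after pin-tool dosing on the day after seeding. Dosing used one drug alone or a fixed anchor-drug dose plus five library-drug doses (not always all listed) in √10 steps, and values are medians of duplicate plates.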
# NCI-H1944 = test system: NCI-H1944
# In short: as §1
# SK-MES-1 = test system: SK-MES-1
# In short: as §1
# ChaGo-K-1 = test system: ChaGo-K-1
# In short: as §1
# PC-3 [JPC-3] = test system: PC-3 [JPC-3]
# In short: as §1
# NCI-H2342 = test system: NCI-H2342
# In short: as §1
# NCI-H650 = test system: NCI-H650
# In short: as §1
# NCI-H358 = test system: NCI-H358
# In short: as §1
# UMC-11 = test system: UMC-11
# In short: as §1
# NCI-H596 = test system: NCI-H596
# In short: as §1
# NCI-H661 = test system: NCI-H661
# In short: as §1
# LXF-289 = test system: LXF-289
# In short: as §1
# NCI-H2087 = test system: NCI-H2087
# In short: as §1
# HCC-15 = test system: HCC-15
# In short: as §1
# H3255 = test system: H3255
# In short: as §1
# NCI-H838 = test system: NCI-H838
# In short: as §1
# LU99A = test system: LU99A
# In short: as §1
# LK-2 = test system: LK-2
# In short: as §1
# LC-2-ad = test system: LC-2-ad
# In short: as §1
# NCI-H1666 = test system: NCI-H1666
# In short: as §1
# LCLC-97TM1 = test system: LCLC-97TM1
# In short: as §1
# HCC-78 = test system: HCC-78
# In short: as §1
# NCI-H322M = test system: NCI-H322M
# In short: as §1
# NCI-H1651 = test system: NCI-H1651
# In short: as §1
compound,measurement,setting,value
CC(C)Oc1cc(Nc2nc(N[C@@H](C)c3ccc(F)cn3)ncc2Cl)n[nH]1 [AZ23] + Nc1nc2[nH]cc(CCc3ccc(C(=O)N[C@@H](CCC(=O)O)C(=O)O)cc3)c2c(=O)[nH]1 [Pemetrexed] (partner 0.2 µM),relative viability,BEN; first compound 0.01 µM,0.634
same,relative viability,BEN; first compound 0.03162 µM,0.892
same,relative viability,BEN; first compound 0.3162 µM,0.732
same,relative viability,NCI-H1944; first compound 0.01 µM,0.314
same,relative viability,NCI-H1944; first compound 0.03162 µM,0.824
same,relative viability,NCI-H1944; first compound 0.3162 µM,0.665
same,relative viability,SK-MES-1; first compound 0.03162 µM,1.03
same,relative viability,SK-MES-1; first compound 0.3162 µM,1.03
same,relative viability,ChaGo-K-1; first compound 0.01 µM,0.24
same,relative viability,ChaGo-K-1; first compound 0.03162 µM,0.256
same,relative viability,ChaGo-K-1; first compound 0.3162 µM,0.269
same,relative viability,PC-3 [JPC-3]; first compound 0.01 µM,0.955
same,relative viability,PC-3 [JPC-3]; first compound 0.03162 µM,1.25
same,relative viability,PC-3 [JPC-3]; first compound 0.3162 µM,1.22
same,relative viability,NCI-H2342; first compound 0.01 µM,0.903
same,relative viability,NCI-H2342; first compound 0.03162 µM,0.811
same,relative viability,NCI-H2342; first compound 0.3162 µM,0.776
same,relative viability,NCI-H650; first compound 0.01 µM,0.936
same,relative viability,NCI-H650; first compound 0.03162 µM,0.969
same,relative viability,NCI-H650; first compound 0.3162 µM,0.888
same,relative viability,NCI-H358; first compound 0.01 µM,0.151
same,relative viability,NCI-H358; first compound 0.03162 µM,0.175
same,relative viability,NCI-H358; first compound 0.3162 µM,0.17
same,relative viability,UMC-11; first compound 0.01 µM,0.802
same,relative viability,UMC-11; first compound 0.03162 µM,0.814
same,relative viability,UMC-11; first compound 0.3162 µM,0.791
same,relative viability,NCI-H596; first compound 0.01 µM,0.422
same,relative viability,NCI-H596; first compound 0.03162 µM,0.55
same,relative viability,NCI-H596; first compound 0.3162 µM,0.509
same,relative viability,NCI-H661; first compound 0.01 µM,0.864
same,relative viability,NCI-H661; first compound 0.03162 µM,0.925
same,relative viability,NCI-H661; first compound 0.3162 µM,0.927
same,relative viability,LXF-289; first compound 0.01 µM,1.02
same,relative viability,LXF-289; first compound 0.03162 µM,0.974
same,relative viability,LXF-289; first compound 0.3162 µM,0.99
same,relative viability,NCI-H2087; first compound 0.01 µM,0.727
same,relative viability,NCI-H2087; first compound 0.03162 µM,0.691
same,relative viability,NCI-H2087; first compound 0.3162 µM,0.766
same,relative viability,HCC-15; first compound 0.01 µM,0.204
same,relative viability,HCC-15; first compound 0.03162 µM,0.222
same,relative viability,HCC-15; first compound 0.3162 µM,0.208
same,relative viability,H3255; first compound 0.01 µM,0.536
same,relative viability,H3255; first compound 0.03162 µM,0.603
same,relative viability,H3255; first compound 0.3162 µM,0.577
same,relative viability,NCI-H838; first compound 0.01 µM,0.207
same,relative viability,NCI-H838; first compound 0.03162 µM,0.27
same,relative viability,NCI-H838; first compound 0.3162 µM,0.243
same,relative viability,LU99A; first compound 0.01 µM,0.146
same,relative viability,LU99A; first compound 0.03162 µM,0.199
same,relative viability,LU99A; first compound 0.3162 µM,0.209
same,relative viability,LK-2; first compound 0.03162 µM,0.36
same,relative viability,LK-2; first compound 0.3162 µM,0.263
same,relative viability,LC-2-ad; first compound 0.01 µM,0.275
same,relative viability,LC-2-ad; first compound 0.03162 µM,0.279
same,relative viability,LC-2-ad; first compound 0.3162 µM,0.297
same,relative viability,NCI-H1666; first compound 0.01 µM,0.822
same,relative viability,NCI-H1666; first compound 0.03162 µM,0.837
same,relative viability,NCI-H1666; first compound 0.3162 µM,0.771
same,relative viability,LCLC-97TM1; first compound 0.01 µM,0.138
same,relative viability,LCLC-97TM1; first compound 0.03162 µM,0.193
same,relative viability,LCLC-97TM1; first compound 0.3162 µM,0.166
same,relative viability,HCC-78; first compound 0.01 µM,0.976
same,relative viability,HCC-78; first compound 0.03162 µM,0.902
same,relative viability,HCC-78; first compound 0.3162 µM,0.938
same,relative viability,NCI-H322M; first compound 0.01 µM,0.536
same,relative viability,NCI-H322M; first compound 0.03162 µM,0.617
same,relative viability,NCI-H322M; first compound 0.3162 µM,0.689
same,relative viability,NCI-H1651; first compound 0.01 µM,0.349
same,relative viability,NCI-H1651; first compound 0.03162 µM,0.597
same,relative viability,NCI-H1651; first compound 0.3162 µM,0.615
